Ki, IC50 and EC50 data for 24 compounds are collected here from ChEMBL document CHEMBL6096673, “In Pursuit of Lead Innovation: Pharmaceutically Important and Distinct Amide-Free Succinate Dehydrogenase Inhibitors” (J Med Chem, 2025).

Assay [1] is described as follows: Binding affinity to carboxylesterase (unknown origin) assessed as inhibition constant by fluorescence analysis. Further details: species or system Homo sapiens.
Assay [2] deals with Rhizoctonia solani. The assay can be described thus: Antifungal activity against Rhizoctonia solani. The class given is functional, organism-based.
For assay [3], the target named is T1, Liver carboxylesterase (Sus scrofa, UniProt Q29550).
T1 sequence (Q29550 whole entry): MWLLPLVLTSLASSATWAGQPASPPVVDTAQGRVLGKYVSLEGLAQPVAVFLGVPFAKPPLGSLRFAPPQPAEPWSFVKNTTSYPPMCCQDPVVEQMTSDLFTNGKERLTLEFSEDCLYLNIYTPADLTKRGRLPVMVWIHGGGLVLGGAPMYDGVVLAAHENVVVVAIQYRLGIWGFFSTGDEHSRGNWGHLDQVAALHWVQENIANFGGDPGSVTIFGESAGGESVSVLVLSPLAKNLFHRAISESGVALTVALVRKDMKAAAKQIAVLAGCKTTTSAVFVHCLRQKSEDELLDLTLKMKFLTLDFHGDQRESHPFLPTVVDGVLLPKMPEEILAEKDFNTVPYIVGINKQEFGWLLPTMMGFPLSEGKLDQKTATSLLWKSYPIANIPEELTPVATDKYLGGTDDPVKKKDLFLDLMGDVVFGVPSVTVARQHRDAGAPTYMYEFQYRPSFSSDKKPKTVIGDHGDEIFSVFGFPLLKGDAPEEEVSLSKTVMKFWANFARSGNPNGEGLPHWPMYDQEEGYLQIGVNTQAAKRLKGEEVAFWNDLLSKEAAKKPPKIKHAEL
Description: Inhibition of porcine liver carboxylesterase.

The subject of assay [4] is Sclerotinia sclerotiorum. The assay can be described thus: Antifungal activity against Sclerotinia sclerotiorum assessed as inhibition of fungal growth. The class given is functional, organism-based.
Assay [5] concerns Fusarium graminearum. The assay can be described thus: Antifungal activity against Gibberella zeae. Type of assay: functional, organism-based.
Assay [6] relates to Alternaria solani. The assay can be described thus: Antifungal activity against Alternaria solani. Type of assay: functional, organism-based.
Assay [7] relates to Botrytis cinerea. The assay can be described thus: Antifungal activity against Botrytis cinerea. The class given is functional, organism-based.
For assay [8], the system named is Sclerotinia sclerotiorum. Description: Antifungal activity against Sclerotinia sclerotiorum. The class given is functional, organism-based.
In assay [9] the test system is Trichophyton mentagrophytes. The assay can be described thus: Antifungal activity against Trichophyton mentagrophytes. The class given is functional, organism-based.
Assay [10] concerns Plasmodium falciparum. The assay can be described thus: Antiplasmodial activity against Plasmodium falciparum. The class given is functional, organism-based.

By Ki is commonly meant a measure of affinity in units of concentration, obtained from inhibition or displacement. Usually IC50 stands for the concentration that inhibits the measured activity by half. What is called EC50 is the concentration at which the effect is half-maximal.

The structures appear in SMILES notation. Values after ≈ are worked out from the molar mass of the structure shown.

In the case of `O=C(CC(=O)C(F)(F)F)c1cccs1`, the Ki in assay [1] was 610 nM. Consider `Cn1cc(/C=N\Oc2cccc(F)c2)c(C(F)F)n1`, for which it took 1.35 µg/mL (≈ 5.01 µM) to reach half-maximal inhibition in assay [2] (IC50). On to `COc1nc(O)c(C(=O)[C@H](C)C[C@H](C)[C@@H](Cl)CCl)c(O)c1OC`, for which half-maximal inhibition in [3] (IC50) required 2000 nM.

Consider `Cn1cc(/C=N/Oc2cccc(I)c2)c(C(F)F)n1`, for which, in assay [2], the midpoint of inhibition, the IC50, lay at 1.57 µg/mL (≈ 4.16 µM).

Compound `COc1nc(O)c(C(=O)CC[C@H](C)[C@@H](Cl)CCl)c(O)c1OC` gave an IC50 in assay [3] of 315 nM. In the case of `COc1nc(O)c(C(=O)[C@@H](C)C[C@@H](C)[C@@H](Cl)CCl)c(O)c1OC`, the IC50 in [3] worked out at 7 nM. In assay [3], `C=CCC/C=C\C=C/CCCCCC[C@H]1CC[C@H]([C@@H]2CC[C@@H](CC(=O)OC)OO2)O1` displayed an IC50 of under 1000 nM.

In [2], `Cn1cc(/C=N\Oc2cccc(Br)c2)c(C(F)F)n1` registered an IC50 of 0.21 µg/mL (≈ 0.636 µM). Turning to `COc1cc(-c2ccc(Br)o2)cc(-c2ccc(Br)cc2)n1`, in assay [4], the IC50 was 1.15 µg/mL (≈ 2.81 µM). In turn, `Cn1cc(/C=N/Oc2cccc(Br)c2)c(C(F)F)n1` showed an IC50 in assay [2] of 4.53 µg/mL (≈ 13.7 µM). With `COc1nc(O)c(C(=O)[C@@H](C)C[C@H](C)[C@H](Cl)CCl)c(O)c1OC`, the IC50 in assay [3] stood at 22.4 nM. `Cn1cc(/C=N/Oc2cccc(F)c2)c(C(F)F)n1` gave an IC50 in [2] of 2.94 µg/mL (≈ 10.9 µM). In assay [2], `Cn1cc(/C=N\Oc2cccc(I)c2)c(C(F)F)n1` showed an IC50 of 1.43 µg/mL (≈ 3.79 µM).

For the compound `Fc1ccc(C2C=C(c3ccc4c(c3)OCO4)NC(=S)N2)cc1` (configuration not stated), the EC50 in assay [5] was found to be 0.57 µg/mL (≈ 1.74 µM); in [6], 0.07 µg/mL (≈ 0.213 µM); in assay [7], 0.44 µg/mL (≈ 1.34 µM). The compound `Cc1ccc(-c2cc(-c3ccc(Cl)cc3)nc(-n3cccn3)n2)o1` gave an EC50 in assay [8] of 0.08 µg/mL (≈ 0.238 µM). Same read-out and setting: as for `CCOC(=O)C(C#N)C(CC(=O)c1ccc(Br)cc1)c1ccco1` (configuration not stated), the figure is 3.3 µg/mL (≈ 8.46 µM). On to `CC[C@@H](C)C[C@H](C)C(=O)c1c(O)nc(OC)c(OC)c1O`, for which, in assay [3], half-maximal inhibition (IC50) required 2100 nM. Take `Cc1ccc(-c2cc(-c3ccco3)nc(C)n2)cc1`: the EC50 in assay [8] worked out at 0.07 µg/mL (≈ 0.28 µM). The compound `COc1nc(O)c(C(=O)[C@@H](C)C[C@H](C)[C@H](C)Cl)c(O)c1OC` yielded a half-inhibitory concentration (IC50) in [3] of 110 nM. Consider `COC(=O)C1=C(C)OC(N)=C(C#N)C1c1ccc(Cl)s1` (configuration not stated), for which, in [2], the IC50 was 1.06 µg/mL (≈ 3.41 µM). With `C=CCC/C=C\C=C/CCCCCCC1CC[C@@H]([C@@H]2CC[C@@H](CC(=O)OC)OO2)O1` (single isomer, unassigned), the IC50 in [3] is under 1000 nM. In assay [3], `COc1[nH]c(=O)c(C(=O)[C@@H](C)C[C@H](C)[C@@H](Cl)CCl)c(O)c1OC` [ATPENIN A5] returned an IC50 of 14 nM. `O=C(NCCc1ncc(C(F)(F)F)cc1Cl)c1ccccc1C(F)(F)F` [FLUOPYRAM]: the IC50 in [3] was under 1000 nM. For the compound `Cc1cc(O)c2c(c1)O[C@@]1(C)CC[C@H]3C(C)(C)CCC[C@]34CO[C@@H]2[C@H]41` [SICCANIN], the results for the IC50 in [9] and in [10] were 0.3 µg/mL (≈ 0.876 µM) and 8400 nM, respectively.
